Key:
[1] = molecular target: T1, Death-associated protein kinase 1 (DAPK1) (Homo sapiens, UniProt P53355); experiment: fluorescent probe saturation binding (BC50), competed by RSV
T1 construct: catalytic domain, residues 1–285

[2] = molecular target: T1, Death-associated protein kinase 1 (DAPK1); experiment: malachite green intrinsic ATPase assay at […] ATP; format: biochemical

T1 sequence (P53355 1-285): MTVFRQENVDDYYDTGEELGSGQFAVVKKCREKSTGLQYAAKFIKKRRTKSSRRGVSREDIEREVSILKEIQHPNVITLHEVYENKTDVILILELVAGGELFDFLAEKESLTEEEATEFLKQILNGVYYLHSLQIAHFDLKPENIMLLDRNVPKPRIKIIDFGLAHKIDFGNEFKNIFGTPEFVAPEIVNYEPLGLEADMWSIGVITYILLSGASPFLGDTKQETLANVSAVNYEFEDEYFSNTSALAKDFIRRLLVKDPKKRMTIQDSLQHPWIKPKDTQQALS

| Compound | Kd [1] [µM] | malachite green intrinsic ATPase assay at 30 μM ATP [2] |
| --- | --- | --- |
| O=S(=O)(O)c1cccc2cccc(Nc3ccccc3)c12 [ANS, 8-anilinonaphthalene-1-sulfonic acid] | 7.3 |  |
| O=c1c(O)c(-c2ccc(O)cc2)oc2cc(O)cc(O)c12 [KAE, kaempferol] |  | The inhibitory potency of KAE was higher than that of API |

Source: article PMC7792996, “Crystal structure of death-associated protein kinase 1 in complex with the dietary compound resveratrol” (IUCrJ, 2021)
